Test results taken from patent US10065971B2 (priority 2014, dated 2018).

Biological target: human σ1 receptor (Homo sapiens, UniProt Q99720)
Test: biochemical
Set-up: μ and σ1 dual binding: scale not given here
Settings: combined class from Ki at human σ1 receptor (A1) and Ki at human μ-opioid receptor (A2); radioligand binding
Method: Biological Activity Pharmacological Study Human σ1 Receptor Radioligand Assay
The assay was carried out with 7 μg of membrane suspension, 5 nM of [^3H](+)-pentazocine in either absence or presence of either buffer or 10 μM Haloperidol for total and non-specific binding, respectively. Binding buffer contained Tris-HCl 50 mM at pH 8. Plates were incubated at 37° C. for 120 minutes. After the incubation period, the reaction mix was then transferred to MultiScreen HTS, FC plates (Millipore), filtered and plates were washed 3 times with ice-cold 10 mM Tris-HCL (pH7.4). Filters were dried and counted at approximately 40% efficiency in a MicroBeta scintillation counter (Perkin-Elmer) using EcoScint liquid scintillation cocktail

Chain of human σ1 receptor (Q99720 whole entry): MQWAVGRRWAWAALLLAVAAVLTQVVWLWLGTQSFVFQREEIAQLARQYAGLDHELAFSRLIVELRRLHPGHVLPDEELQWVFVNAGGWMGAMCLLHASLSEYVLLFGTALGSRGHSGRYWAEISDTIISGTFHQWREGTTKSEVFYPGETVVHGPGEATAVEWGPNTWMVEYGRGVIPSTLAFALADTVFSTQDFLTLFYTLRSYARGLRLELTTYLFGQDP

| SMILES | μ and σ1 dual binding |
| --- | --- |
| CC1CN(C(=O)c2ccc(Cl)cn2)CC2(CCN(CCc3csc(N)n3)CC2)O1.Cl (stereo not shown) [Example 102, (9-(2-(2-aminothiazol-4-yl)ethyl)-2-methyl-1-oxa-4,9-diazaspiro[5.5]undecan-4-yl)(5-chloropyridin-2-yl)methanone hydrochloride] | ++ |
| CC1CN(C(=O)c2ccccc2)CC2(CCN(CCc3csc(N)n3)CC2)O1.Cl (stereo not shown) [Example 103, (9-(2-(2-aminothiazol-4-yl)ethyl)-2-methyl-1-oxa-4,9-diazaspiro[5.5]undecan-4-yl)(phenyl)methanone] | ++ |
| CC1CN(C(=O)c2ccccc2)CC2(CCN(CCc3cccc(NC(N)=O)c3)CC2)O1.Cl (stereo not shown) [Example 109, 1-(3-(2-(4-benzoyl-2-methyl-1-oxa-4,9-diazaspiro[5.5]undecan-9-yl)ethyl)phenyl)urea hydrochloride] | ++ |
| CC1CN(C(=O)c2ccccc2)CC2(CCN(CCc3ccccc3NC(N)=O)CC2)O1 (stereo not shown) [Example 110, 1-(2-(2-(4-benzoyl-2-methyl-1-oxa-4,9-diazaspiro[5.5]undecan-9-yl)ethyl)phenyl)urea] | ++ |
| CC(=O)Nc1cccc(CCN2CCC3(CC2)CN(C(=O)c2ccccc2)CCO3)c1 [Example 111, N-(3-(2-(4-benzoyl-1-oxa-4,9-diazaspiro[5.5]undecan-9-yl)ethyl)phenyl)acetamide] | ++ |
| CC(=O)Nc1ccccc1CCN1CCC2(CC1)CN(C(=O)c1ccccc1)CC(C)O2.Cl (stereo not shown) [Example 112, N-(2-(2-(4-benzoyl-2-methyl-1-oxa-4,9-diazaspiro[5.5]undecan-9-yl)ethyl)phenyl)acetamide hydrochloride] | ++ |
| CS(=O)(=O)Nc1cccc(CCN2CCC3(CC2)CN(C(=O)c2ccccc2)CCO3)c1 [Example 114, N-(3-(2-(4-benzoyl-1-oxa-4,9-diazaspiro[5.5]undecan-9-yl)ethyl)phenyl)methanesulfonamide] | ++ |
| CN(C)C(=O)N1CCOC2(CCN(CCc3ccccc3)CC2)C1 [Example 117, N,N-dimethyl-9-phenethyl-1-oxa-4,9-diazaspiro[5.5]undecane-4-carboxamide] | ++ |
| CN(C(=O)N1CCOC2(CCN(CCc3ccccc3)CC2)C1)c1ccccn1.Cl [Example 119, N-methyl-9-phenethyl-N-(pyridin-2-yl)-1-oxa-4,9-diazaspiro[5.5]undecane-4-carboxamide hydrochloride] | ++ |
| C[C@@H]1CN(C(=O)c2ccccn2)CC2(CCN(CCc3ccccc3)CC2)O1.Cl [Example 124, (R)-(2-methyl-9-phenethyl-1-oxa-4,9-diazaspiro[5.5]undecan-4-yl)(pyridin-2-yl)methanone hydrochloride] | ++ |
| COc1cccnc1CCN1CCC2(CC1)CN(C(=O)c1ccccc1F)CC1(CC1)O2 [Example 130, 12-[(2-fluorophenyl)carbonyl]-8-(2-(3-methoxypyridin-2-yl)ethyl)-4-oxa-8,12-diazadispiro[2.1.5.3]tridecane] | ++ |
| N#Cc1ccccc1C(=O)N1CC2(CCN(CCc3ncccc3F)CC2)OC2(CC2)C1 [Example 135, 2-(8-(2-(3-fluoropyridin-2-yl)ethyl)-4-oxa-8,12-diazadispiro[2.1.5.3]tridecane-12-carbonyl)benzonitrile] | ++ |
| C[C@@H]1CN(C(=O)c2ccccc2F)CC2(CCN(CCc3ncccc3F)CC2)O1 [Example 143, (R)-(2-fluorophenyl)(9-(2-(3-fluoropyridin-2-yl)ethyl)-2-methyl-1-oxa-4,9-diazaspiro[5.5]undecan-4-yl)methanone] | ++ |
| C[C@H]1CN(C(=O)c2ccccc2F)CC2(CCN(CCc3ncccc3F)CC2)O1 [Example 144, (S)-(2-fluorophenyl)(9-(2-(3-fluoropyridin-2-yl)ethyl)-2-methyl-1-oxa-4,9-diazaspiro[5.5]undecan-4-yl)methanone] | ++ |
| C[C@@H]1CN(C(=O)c2c(F)cccc2F)CC2(CCN(CCc3ncccc3F)CC2)O1 [Example 145, (R)-(2,6-difluorophenyl)(9-(2-(3-fluoropyridin-2-yl)ethyl)-2-methyl-1-oxa-4,9-diazaspiro[5.5]undecan-4-yl)methanone] | ++ |
| C[C@H]1CN(C(=O)c2c(F)cccc2F)CC2(CCN(CCc3ncccc3F)CC2)O1 [Example 146, (S)-(2,6-difluorophenyl)(9-(2-(3-fluoropyridin-2-yl)ethyl)-2-methyl-1-oxa-4,9-diazaspiro[5.5]undecan-4-yl)methanone] | ++ |

Same assay, conditions: combined class from Ki at human σ1 receptor (A1) and Ki at human μ-opioid receptor (A2); radioligand binding; read-out: μ and σ1 dual binding

| SMILES | Ki |
| --- | --- |
| Nc1cccc(CCN2CCC3(CC2)CN(C(=O)c2ccccc2)CCO3)c1 [Example 104, (9-(3-aminophenethyl)-1-oxa-4,9-diazaspiro[5.5]undecan-4-yl)(phenyl)methanone] | > 500 nM |
| O=C(Nc1cccnc1)N1CCOC2(CCN(CCc3ccccc3)CC2)C1 [Example 121, 9-phenethyl-N-(pyridin-3-yl)-1-oxa-4,9-diazaspiro[5.5]undecane-4-carboxamide] | > 500 nM |
| COC(=O)CCN1CCC2(CC1)CN(C(=O)c1c(F)cccc1F)CC1(CC1)O2 [Example 140, methyl 3-(12-(2,6-difluorobenzoyl)-4-oxa-8,12-diazadispiro[2.1.5.3]tridecan-8-yl)propanoate] | > 500 nM |
| CC1CN(C(=O)c2cccc(F)c2F)CC2(CCN(CCc3ncccc3F)CC2)O1 (stereo not shown) [Example 147, (2,3-difluorophenyl)(9-(2-(3-fluoropyridin-2-yl)ethyl)-2-methyl-1-oxa-4,9-diazaspiro[5.5]undecan-4-yl)methanone] | > 500 nM |
| CC1CN(C(=O)c2ccc(F)cc2F)CC2(CCN(CCc3ncccc3F)CC2)O1 (stereo not shown) [Example 148, (2,4-difluorophenyl)(9-(2-(3-fluoropyridin-2-yl)ethyl)-2-methyl-1-oxa-4,9-diazaspiro[5.5]undecan-4-yl)methanone] | > 500 nM |
| CC1CN(C(=O)c2cccc(F)c2)CC2(CCN(CCc3ncccc3F)CC2)O1 (stereo not shown) [Example 151, (3-fluorophenyl)(9-(2-(3-fluoropyridin-2-yl)ethyl)-2-methyl-1-oxa-4,9-diazaspiro[5.5]undecan-4-yl)methanone] | > 500 nM |
